This note sets out measurements from patent US7504371B2, “Organic catalyst with enhanced enzyme compatibility” (The Procter & Gamble Company, priority 2005, dated 2009).

Structures can show the parent of a compound that is named as a salt.

Assay type in all cases: biochemical
Assay [1] has as its target T1, Termamyl (Bacillus licheniformis, UniProt P06278).
T1 construct: purchased Novozymes, Denmark
Description: Organic Catalyst/Enzyme Compatibility Test (alpha amylase activity assay), Termamyl. The note with it: (Ac/Ab)×100; [Peracetic Acid]=5.0 ppm; [organic catalyst]=0.5 ppm; 40° C.; detergent solution. The method, then: (§1) Organic Catalyst/Enzyme Compatibility Test
(§2) The test described below uses an alpha amylase activity assay to measure the impact of organic catalysts on the enzyme.
(§3) Equipment. UV/V is spectrophotometer capable of measuring @ 415 nm, heated magnetic stirrer capable of 40° C., 5 mL Luer lock syringe and filters (Acrodisc 0.45 μm), pH meter, and balance (4-place analytical).
(§4) Reagents. […]
(§5) • a.) TRIS Assay Buffer. […] Mix 6 μL of filtered sample with 250 μL of amylase reagent in a cuvette and place the cuvette in a UV/VIS spectrophotometer and monitor change in absorbance at 415 nm. Determine length of time (tE) to the nearest second required to obtain an absorbance reading of 1.0 for each enzyme. […] Once sample and reagent are mixed, record the absorbance at tE for the respective enzyme. Designate such absorbance Ab. • c.) Analysis of sample with enzyme, peracetic acid, and organic catalyst. […] Once sample and reagent are mixed, record the absorbance at tE for the respective enzyme. Designate such absorbance Ac. […] The ECV for any specific enzyme is (Ac/Ab)×100 where Ab and Ac are the values determined in Steps 2.)b.) and 2.)c.), respectively, for that enzyme. • b.) The ECV for a given organic catalyst is the average of the individual ECV values for the three enzymes. […]

In assay [2] the test system is Natalase. The experiment in a line: Organic Catalyst/Enzyme Compatibility Test (alpha amylase activity assay), Natalase. The conditions noted are these: (Ac/Ab)×100; [Peracetic Acid]=5.0 ppm; [organic catalyst]=0.5 ppm; 40° C.; detergent solution. The method, then:
as §1, §2, §3, §4, §5

Assay [3] concerns Termamyl, Natalase, and Duramyl. Description: Organic Catalyst/Enzyme Compatibility Test, average of the three amylases. The note with it: ECV=(ECVter+ECVdur+ECVnat)/3; [Peracetic Acid]=5.0 ppm; [organic catalyst]=0.5 ppm. The procedure:
as §1, §2, §3, §4, §5

Assay [4] relates to Duramyl. The experiment in a line: Organic Catalyst/Enzyme Compatibility Test (alpha amylase activity assay), Duramyl. The conditions noted are these: (Ac/Ab)×100; [Peracetic Acid]=5.0 ppm; [organic catalyst]=0.5 ppm; 40° C.; detergent solution. The procedure:
as §1, §2, §3, §4, §5

T1 sequence (P06278 30-512): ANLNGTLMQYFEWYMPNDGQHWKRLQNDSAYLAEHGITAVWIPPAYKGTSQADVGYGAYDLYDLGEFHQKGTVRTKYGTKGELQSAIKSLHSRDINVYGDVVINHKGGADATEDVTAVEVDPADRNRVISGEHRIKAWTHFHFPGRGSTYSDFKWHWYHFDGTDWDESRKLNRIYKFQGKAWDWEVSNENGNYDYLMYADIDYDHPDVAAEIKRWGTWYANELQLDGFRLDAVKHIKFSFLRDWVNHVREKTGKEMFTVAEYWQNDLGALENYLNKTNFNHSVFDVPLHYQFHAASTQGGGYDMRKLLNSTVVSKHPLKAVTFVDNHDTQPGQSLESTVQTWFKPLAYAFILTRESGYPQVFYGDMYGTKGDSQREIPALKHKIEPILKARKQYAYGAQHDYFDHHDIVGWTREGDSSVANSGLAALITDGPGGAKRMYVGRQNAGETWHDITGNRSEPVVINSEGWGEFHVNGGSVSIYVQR

For `CC(C)(C)OCC(C[N+]1=Cc2ccccc2CC1)OS(=O)(=O)[O-]` (stereo not shown) [Entry 1, Sulfuric acid mono-[2-(3,4-dihydro-isoquinolin-2-yl)-1-((1,1-dimethylethoxy)methyl)ethyl] ester, internal salt], the “Enzyme Compatibility Values ECVter” value in assay [1] worked out at 51. Besides, the “Enzyme Compatibility Values ECVnat” value in assay [2] was 58. Moreover, the “Enzyme Compatibility Values ECV” value in assay [3] was 65. In addition, the “Enzyme Compatibility Values ECVdur” value in assay [4] was 86.
